Measurements reported in patent US4576940A, “Anti-allergic 3-indolecarboxamides” (Yoshitomi Pharmaceutical Industries, Ltd., priority 1983, dated 1986).
Structures can show the parent of a compound that is named as a salt. Where two headings read alike, the source gives them in different places. Values belong to the compound of their own block, whether it stands above or below them.

Key:
[1] = prior art, in words; cited from earlier work
[2] = prior art, in words; cited from earlier work; remark: listed apart in the source
[3] = prior art, in words; cited from earlier work; remark: listed apart in the source
[4] = tested on: histamine induced asthma; assay: Inhibitory effect on histamine induced asthma in guinea pigs; type: in vivo, guinea pig (female Hartley); settings: Cavia porcellus, po, read-out: Antihistaminic activity (% inhibition)
Experimental: 2. Inhibitory effect on histamine induced asthma in guinea pigs
The experiment was performed according to the method of Suyama et al. which is described in Jpn. J. Allergol. 15, 549-556, 1966. Female Hartley guinea pigs weighing 300-400 g were used in groups of 5 or more. One hour after the oral administration of test compound solution, animals were placed in a transparent square box and exposed to a 0.2% histamine hydrochloride (Nakarai Chemicals, Ltd.) saline aerosol using an ultrasonic nebulizer (Nihon Kohden, TUR-3000). Protection was assessed during the exposure period (5 minutes) by the presence or absence of loss of righting due to dyspnea. The effects of test compounds were expressed in terms of percent inhibition.

[5] = target: T1, 5-lipoxygenase (Cavia porcellus, UniProt A0A286X958); assay: 5-lipoxygenase inhibition (arachidonic acid induced chemiluminescence of peripheral leukocytes in guinea pigs); type: cell-based, guinea pig
T1 construct: Guinea pigs were anesthetized with ethyl ether, and the peripheral blood was collected in heparinized syringes; endogenous in cells; host or cells: guinea pig peripheral blood leukocytes (dextran sedimentation, erythrocytes lysed)
T1 sequence (A0A286X958 1-674): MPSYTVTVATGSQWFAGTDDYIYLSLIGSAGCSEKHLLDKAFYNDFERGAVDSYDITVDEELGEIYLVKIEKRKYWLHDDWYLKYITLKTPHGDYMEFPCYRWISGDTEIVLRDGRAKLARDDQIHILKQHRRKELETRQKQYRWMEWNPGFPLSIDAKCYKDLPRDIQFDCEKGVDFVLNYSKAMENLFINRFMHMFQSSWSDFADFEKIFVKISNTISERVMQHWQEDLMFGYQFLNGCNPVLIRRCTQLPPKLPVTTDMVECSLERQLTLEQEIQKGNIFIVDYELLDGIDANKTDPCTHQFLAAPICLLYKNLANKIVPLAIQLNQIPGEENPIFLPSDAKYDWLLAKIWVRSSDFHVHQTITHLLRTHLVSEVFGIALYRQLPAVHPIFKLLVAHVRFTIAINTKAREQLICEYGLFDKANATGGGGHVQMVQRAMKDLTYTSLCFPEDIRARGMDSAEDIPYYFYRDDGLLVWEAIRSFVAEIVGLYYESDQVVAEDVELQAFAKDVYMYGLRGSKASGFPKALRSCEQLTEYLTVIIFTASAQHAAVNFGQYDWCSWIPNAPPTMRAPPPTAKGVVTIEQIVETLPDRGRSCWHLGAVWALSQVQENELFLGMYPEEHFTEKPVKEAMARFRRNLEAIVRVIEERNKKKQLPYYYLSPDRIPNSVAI
Experimental: 1. Inhibitory activity on 5-lipoxygenase (Effect of test compounds on arachidonic acid induced chemiluminescence of peripheral leukocytes in guinea pigs)
(1) Isolation of leukocytes and preparation of leukocyte suspension
Guinea pigs were anesthetized with ethyl ether, and the peripheral blood was collected in heparinized syringes (10 U/ml, blood) from the abdominal aorta through a needle.
50 ml of a 6% dextran solution (molecular weight 177,000, Nakarai Chemicals Ltd.) was added to 100 ml of blood. This suspension was gently mixed, and was allowed to sediment for 60 minutes at room temperature. The upper leukocyte-rich suspension was centrifuged at 400×g for 10 minutes at room temperature. Tris-HCl buffer (pH 7.65) containing 5.0 ml of a 0.83% ammonium chloride solution was added to the cell pellet to lyse remaining erythrocytes. This suspension was centrifuged at 150×g for 10 minutes at 4° C. Eagle's MEM (10 ml) containing 10% fetal bovine serum (Flow Laboratories, Inc.) was added to the cell pellet. This suspension was centrifuged under the same conditions. The cell pellet was suspended in an equal volume of phosphate buffered saline (pH 7.4) containing 0.2% glucose and 0.2% bovine serum albumin, and this mixture was centrifuged under the same conditions. The above procedure was performed twice, and the cell pellet was suspended in the above buffer to adjust the leukocyte counts to 5×10^6 cells/ml.
(2) Chemiluminescence assay
Chemiluminescence was measured by the method of Yoshimoto et al. which is described in Biochem. Biophys. Res. Commun. 107, 779-784, 1982. Briefly, 0.3 ml of a leukocyte suspension was preincubated with 5 μl of a test compound solution of phosphate-buffered saline as controls, 0.05 ml of 1 mM luminol (Nakarai Chemicals, Ltd.) and 0.05 ml of 100 μM indomethacin (Sumitomo Chemical Co. Ltd.) After preincubation at 26° C. for 2 minutes, 100 μl of 2 mM arachidonic acid (Sigma) was added to the reaction mixture. Chemiluminescence was recorded continuously by an Aminco Chem-Glow model J4-7441S photometer equipped with a Hitachi model 056 recorder, and the peak height of luminol intensity was measured. The effects of test compounds were expressed as IC50 values (μM).

[6] = Acute toxicity in mice; settings: mouse, in vivo, 14 days observation
Experimental: (§1) 3. Acute toxicity in mice and rats
(§2) The acute toxicity of test compound No. 2 was evaluated in 120 male mice weighing 30-42 g and 120 female mice weighing 23-35 g, and in 56 male rats weighing 150-190 g and 56 female rats weighing 115-150 g by oral and intraperitoneal administration. […] LD50 values were calculated by probit method.

[7] = Acute toxicity in rats; settings: rat, in vivo, 14 days observation
Experimental: as §1, §2

[8] = background, in words; cited from earlier work
[9] = arachidonic acid induced chemiluminescence, guinea pig leukocytes, median inhibition concentration, read-out: 5-lipoxygenase inhibiting activity IC50

Compound: O=C(NC1CCN(CCc2c[nH]c3ccccc23)CC1)c1c[nH]c2ccccc12 [3-[2-(4-[indole-3-carboxamido]-1-piperidyl)ethyl]indole]
anti-histaminic activity [1]: very weak anti-histaminic activity
hypotensive effect [2]: moderate hypotensive effect
anti-inflammatory action [3]: effective anti-inflammatory action

Compound: CN(C)CCOC(c1ccccc1)c1ccccc1 [Comparison B, Diphenhydramine, reference compound]
inhibition in vivo at 5 mg/kg ([4]; 1 h): 20%
inhibition in vivo at 25 mg/kg ([4]; 1 h): 100%

Compound: CCCCn1c(C)c(C(=O)NC2CCN(CCc3ccccc3)CC2)c2cc(O)ccc21 [Example 2, 1-butyl-5-hydroxy-2-methyl-N-(1-(2-phenylethyl)-4-piperidyl)indole-3-carboxamide]
IC50 [5]: 450 nM
inhibition in vivo at 0.5 mg/kg ([4]; 1 h): 40%
inhibition in vivo at 2.5 mg/kg ([4]; 1 h): 100%
LD50 at 336 h ([6]; ip, female mice): 1470 mg/kg
LD50 at 336 h ([6]; ip, male mice): 1430 mg/kg
LD50 at 336 h ([6]; po, female mice): > 10400 mg/kg
LD50 at 336 h ([6]; po, male mice): > 12000 mg/kg
LD50 at 336 h ([7]; ip, female rats): 1930 mg/kg
LD50 at 336 h ([7]; ip, male rats): 1940 mg/kg
LD50 at 336 h ([7]; po, female rats): > 9000 mg/kg
LD50 at 336 h ([7]; po, male rats): > 9000 mg/kg

Compound: Cc1c(C(=O)NC2CCN(CCc3ccccc3)CC2)c2cc(O)ccc2n1Cc1ccccc1 [Example 4, 1-benzyl-5-hydroxy-2-methyl-N-(1-(2-phenylethyl)-4-piperidyl)indole-3-carboxamide hydrochloride]
IC50 [5]: 850 nM
inhibition in vivo at 0.5 mg/kg ([4]; 1 h): 60%

Compound: Cc1c(C(=O)NC2CCN(CCc3ccccc3)CC2)c2cc(O)ccc2n1C(C)C [Example 5, 5-hydroxy-1-isopropyl-2-methyl-N-(1-(2-phenylethyl)-4-piperidyl)indole-3-carboxamide hydrochloride]
inhibition in vivo at 0.5 mg/kg ([4]; 1 h): 100%

Compound: Cc1c(C(=O)NC2CCN(CCc3ccccc3)CC2)c2cc(O)ccc2n1CC(C)C [Example 6, 5-Hydroxy-1-isobutyl-2-methyl-N-(1-(2-phenylethyl)-4-piperidyl)indole-3-carboxamide hydrochloride]
inhibition in vivo at 0.5 mg/kg ([4]; 1 h): 0%
inhibition in vivo at 2.5 mg/kg ([4]; 1 h): 60%

Compound: CCCCCCn1c(C)c(C(=O)NC2CCN(CCc3ccccc3)CC2)c2cc(O)ccc21 [Example 10, 1-Hexyl-5-hydroxy-2-methyl-N-(1-(2-phenylethyl)-4-piperidyl)indole-3-carboxamide hydrochloride monohydrate]
inhibition in vivo at 0.5 mg/kg ([4]; 1 h): 20%
inhibition in vivo at 2.5 mg/kg ([4]; 1 h): 100%

Compound: Cc1c(C(=O)NC2CCN(CCc3ccccc3)CC2)c2cc(O)ccc2n1C1CCCCC1 [Example 12, 1-Cyclohexyl-5-hydroxy-2-methyl-N-(1-(2-phenylethyl)-4-piperidyl)indole-3-carboxamide hydrochloride hemihydrate]
IC50 [5]: 1700 nM

Compound: Cc1c(C(=O)NC2CCN(CCc3ccccc3)CC2)c2cc(O)ccc2n1CCc1ccccc1 [Example 16, 5-Hydroxy-2-methyl-1-(2-phenylethyl)-N-(1-(2-phenylethyl)-4-piperidyl)indole-3-carboxamide hydrochloride]
IC50 [5]: 1000 nM
inhibition in vivo at 2.5 mg/kg ([4]; 1 h): 100%

IC50 [5, 9]: 4200 nM
Compound: Cc1c(C(=O)NC2CCN(CCc3ccccc3)CC2)c2cc(O)ccc2n1-c1ccc(Cl)cc1 [Example 24, 1-(p-Chlorophenyl)-5-hydroxy-2-methyl-N-(1-(2-phenylethyl)-4-piperidyl)indole-3-carboxamide hydrochloride]

IC50 [5, 9]: 2500 nM
Compound: Cc1c(C(=O)NC2CCN(CCCc3ccccc3)CC2)c2cc(O)ccc2n1-c1ccccc1 [Example 26, 5-Hydroxy-2-methyl-1-phenyl-N-(1-(3-phenylpropyl)-4-piperidyl)indole-3-carboxamide hydrochloride monohydrate]

IC50 [5, 9]: 1400 nM
Compound: Cc1c(C(=O)NC2CCN(CCc3ccccc3)CC2)c2cc(O)ccc2n1-c1ccccc1 [Example 29, 5-Hydroxy-2-methyl-N-(1-(2-phenylethyl)-4-piperidyl)-1-phenylindole-3-carboxamide hydrochloride]
inhibition in vivo at 0.5 mg/kg ([4]; 0.5 mg/kg, p.o., 1 hour before histamine aerosol, guinea pigs): 33%

Compound: CCCCn1c(C)c(C(=O)NC2CCN(CCOc3ccccc3)CC2)c2cc(O)ccc21 [Example 31, 1-Butyl-5-hydroxy-2-methyl-N-(1-(2-phenoxyethyl)-4-piperidyl)indole-3-carboxamide]
IC50 [5]: 260 nM

Compound: CCCCC/C=C\C\C=C/C=C/C=C/[C@@H](SC[C@H](NC(=O)CC[C@H](N)C(=O)O)C(=O)NCC(=O)O)[C@@H](O)CCCC(=O)O [LTC4]
bronchoconstriction activity [8]: strong bronchoconstriction activity

Compound: CCCCC/C=C\C\C=C/C=C/C=C/[C@@H](SC[C@H](N)C(=O)NCC(=O)O)[C@@H](O)CCCC(=O)O [LTD4]
bronchoconstriction activity [8]: strong bronchoconstriction activity

Compound: CCCCC/C=C\C\C=C/C=C/C=C/[C@@H](SC[C@H](N)C(=O)O)[C@@H](O)CCCC(=O)O [LTE4]
bronchoconstriction activity [8]: strong bronchoconstriction activity

Compound: O=C(NC1CCN(CCc2c[nH]c3ccccc23)CC1)c1ccccc1 [indoramin, 3-[2-(4-benzamidopiperid-1-yl)ethyl]indole]
hypotensive effect [2]: possesses hypotensive activity
